The assay has as its target T1, human chemokine receptor 2 isoform B (Homo sapiens, UniProt P41597).
T1 construct: host or cells: CHOK1-CCR2B-A5 (CHO-K1) cells
T1 sequence (P41597 1-360 isoform P41597-2): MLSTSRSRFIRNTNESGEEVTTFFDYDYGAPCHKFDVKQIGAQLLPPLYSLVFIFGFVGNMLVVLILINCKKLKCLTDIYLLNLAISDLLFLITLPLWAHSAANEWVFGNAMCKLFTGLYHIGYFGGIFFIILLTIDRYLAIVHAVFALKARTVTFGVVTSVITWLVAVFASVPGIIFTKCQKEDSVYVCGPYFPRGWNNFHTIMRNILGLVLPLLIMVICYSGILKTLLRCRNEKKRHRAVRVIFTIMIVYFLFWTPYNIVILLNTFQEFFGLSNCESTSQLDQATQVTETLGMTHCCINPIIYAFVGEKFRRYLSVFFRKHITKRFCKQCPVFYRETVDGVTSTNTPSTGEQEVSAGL
In words: Calcium mobilization assay. The assay is classed as cell-based. The conditions noted are these: Ca mobilization assay for CCR2; CHOK1-CCR2B-A5 cells; antagonist activity against 20 nM MCP-1; FLIPR, Fluo-4. The protocol: Calcium Mobilization Assay
CHOK1-CCR2B-A5 cells (from Euroscreen) stably overexpressing the human chemokine receptor 2 isoform B were cultured in Nutrient Hams F12 medium supplemented with 5% FBS, 100 U/ml penicillin, 100 μg/ml streptomycin, 400 μg/ml G418 and 5 μg/ml puromycin.
For the assay cells were grown overnight in 384-well black clear flat bottom polystyrene plates (Costar) at 37° C. at 5% CO2. After washing with DMEM, 20 mM Hepes, 2.5 mM probenecid, 0.1% BSA (DMEM assay buffer) cells were loaded with 4 μM Fluo-4 in the same DMEM assay buffer for 2 hours at 30° C. Excess dye was removed and cells were washed with DMEM assay buffer. 384-well compound plates were prepared with DMEM assay buffer/0.5% dimethyl sulfoxide with or without various concentrations of test compounds. Usually compounds were tested for agonist and antagonist activity.
Test compounds were added to the assay plate and agonist activity was monitored as fluorescence for 80 seconds with a FLIPR (488 nm excitation; 510-570 nm emission; Molecular Devices). After 20-30 min. of incubation at 30° C., 20 nM MCP-1 (R&D; Roche) was added and fluorescence was monitored again for 80 seconds. Increases in intracellular calcium are reported as maximum fluorescence after agonist exposure minus basal fluorescence before exposure. Antagonist activity is indicated as inhibitor concentration required for 50% inhibition of specific calcium increases.

As a reminder, the IC50 is the concentration that inhibits the measured activity by half. As to `COC(=O)C(CCN1CCC2(CC2)[C@H](O)C1)N1CCN(c2cccc(C(F)(F)F)c2)CCC1=O` (stereo partly drawn) [Example 15, (R,S)-4-((S)-4-Hydroxy-6-aza-spiro[2.5]oct-6-yl)-2-[7-oxo-4-(3-trifluoromethyl-phenyl)-[1,4]diazepan-1-yl]-butyric acid methyl ester], the IC50 came out at 60 nM. Next, `CC1C(=O)N(C(CCN2CCC3(CC3)[C@H](O)C2)C(=O)N(C)C)CCN1c1cccc(OC(F)(F)F)c1` (stereo partly drawn) [Example 50, 4-((S)-4-Hydroxy-6-aza-spiro[2.5]oct-6-yl)-N,N-dimethyl-2-[3-methyl-2-oxo-4-(3-trifluoromethoxy-phenyl)-piperazin-1-yl]-butyramide]: 30 nM; `CC1C(=O)N(CCCN2CCCCC2)CCN1c1cccc(OC(F)(F)F)c1` (centres unmarked) [Example 41, 3-Methyl-1-(3-piperidin-1-yl-propyl)-4-(3-trifluoromethoxy-phenyl)-piperazin-2-one]: 580 nM; `C[C@H]1C(=O)N(CCCN2CCCCC2)CCN1c1ccc(Cl)c(Cl)c1` [Example 72, (S)-4-(3,4-Dichloro-phenyl)-3-methyl-1-(3-piperidin-1-yl-propyl)-piperazin-2-one]: 306 nM.

With `COC[C@H](CCN1C[C@@H](C)C[C@H](O)C1)N1CCN(c2cccc(C(F)(F)F)c2)CCC1=O` [Example 24, 4-[(S)-3-((3S,5S)-3-Hydroxy-5-methyl-piperidin-1-yl)-1-methoxymethyl-propyl]-1-(3-trifluoromethyl-phenyl)-[1,4]diazepan-5-one], the IC50 is 90 nM. As to `COC(=O)[C@H](CCN1CCC2(CC2)[C@H](O)C1)N1CC(C)N(c2ccc(Cl)c(Cl)c2)CCC1=O` (mixture of isomers) [Example 67, (S)-2-[(R,S)-4-(3,4-dichloro-phenyl)-3-methyl-7-oxo-[1,4]diazepan-1-yl]-4-((S)-4-hydroxy-6-aza-spiro[2.5]oct-6-yl)-butyric acid methyl ester], the IC50 was found to be 52 nM. Next, `O=C1CCN(c2cccc(C(F)(F)F)c2)CCN1[C@@H](CO)CCN1CCC2(CC2)[C@H](O)C1` [Example 9, 4-[(R)-3-((S)-4-Hydroxy-6-aza-spiro[2.5]oct-6-yl)-1-hydroxymethyl-propyl]-1-(3-trifluoromethyl-phenyl)-[1,4]diazepan-5-one]: 180 nM; `CC1C(=O)N(CCCN2CCCCC2)CCN1c1cccc(C(F)(F)F)c1` (centres unmarked) [Example 51, 3-Methyl-1-(3-piperidin-1-yl-propyl)-4-(3-trifluoromethyl-phenyl)-piperazin-2-one]: 190 nM. The same measure for `CN(C)C(=O)C(CCCN1CCC(C)(O)CC1)N1CCN(c2cccc(C(F)(F)F)c2)CCC1=O` (racemic) [Example 25, (rac)-5-(4-Hydroxy-4-methyl-piperidin-1-yl)-2-[7-oxo-4-(3-trifluoromethyl-phenyl)-[1,4]diazepan-1-yl]-pentanoic acid dimethylamide]: 200 nM; for `CC1CN(C(CO)CCN2CCC3(CC3)[C@H](O)C2)C(=O)CCN1c1ccc(Cl)c(Cl)c1` (stereo in doubt) [Example 69, (R)-1-(3,4-Dichloro-phenyl)-4-[(S)-3-((S)-4-hydroxy-6-aza-spiro[2.5]oct-6-yl)-1-hydroxymethyl-propyl]-2-methyl-[1,4]diazepan-5-one]: 11 nM. The same measure for `O=C1CCN(c2cccc(Cl)c2)CCN1[C@H](CO)CCN1CCC2(CC2)[C@H](O)C1` [Example 4, 1-(3-Chloro-phenyl)-4-[(S)-3-((S)-4-hydroxy-6-aza-spiro[2.5]oct-6-yl)-1-hydroxymethyl-propyl]-[1,4]diazepan-5-one]: 60 nM; for `CC1C(=O)N(CCCN2CCC3(CC3)[C@H](O)C2)CCN1c1cccc(OC(F)(F)F)c1` (stereo partly drawn) [Example 44, 1-[3-((S)-4-Hydroxy-6-aza-spiro[2.5]oct-6-yl)-propyl]-3-methyl-4-(3-trifluoromethoxy-phenyl)-piperazin-2-one]: 20 nM; for `CC1C(=O)N(C(CO)CCN2CCC3(CC3)[C@H](O)C2)CCN1c1cccc(OC(F)(F)F)c1` (stereo partly drawn) [Example 49, 1-[3-((S)-4-hydroxy-6-aza-spiro[2.5]oct-6-yl)-1-hydroxymethyl-propyl]-3-methyl-4-(3-trifluoromethoxy-phenyl)-piperazin-2-one]: 5 nM. Turning to `COC(=O)[C@H](CCN1CCC2(CC2)[C@H](O)C1)N1CCN(c2ccc(C(F)(F)F)cc2)CCC1=O` [Example 19, (S)-4-((S)-4-Hydroxy-6-aza-spiro[2.5]oct-6-yl)-2-[7-oxo-4-(4-trifluoromethyl-phenyl)-[1,4]diazepan-1-yl]-butyric acid methyl ester], the IC50 is 410 nM. Consider `O=C1CCN(c2cccc(OC(F)(F)F)c2)CCN1[C@H](CO)CCN1CCC2(CC2)[C@H](O)C1` [Example 14, 4-[(S)-3-((S)-4-Hydroxy-6-aza-spiro[2.5]oct-6-yl)-1-hydroxymethyl-propyl]-1-(3-trifluoromethoxy-phenyl)-[1,4]diazepan-5-one], for which the IC50 is 10 nM.

Regarding `COC(=O)[C@H](CCN1C[C@@H](C)C[C@H](O)C1)N1CCN(c2cccc(C(F)(F)F)c2)CCC1=O` [Example 7, (S)-4-((3S,5S)-3-Hydroxy-5-methyl-piperidin-1-yl)-2-[7-oxo-4-(3-trifluoromethyl-phenyl)-[1,4]diazepan-1-yl]-butyric acid methyl ester], the IC50 was 90 nM.

For the molecule `CC1C(=O)N(CC2CCCN(C)C2)CCN1c1cccc(C(F)(F)F)c1` (centres unmarked) [Example 58, 3-Methyl-1-(1-methyl-piperidin-3-ylmethyl)-4-(3-trifluoromethyl-phenyl)-piperazin-2-one], the IC50 is 680 nM.

Regarding `CC[C@H]1C(=O)N(CCCN2CCC3(CC3)[C@H](O)C2)CCN1c1ccc(Cl)c(Cl)c1` [Example 87, (S)-4-(3,4-Dichloro-phenyl)-3-ethyl-1-[3-((S)-4-hydroxy-6-aza-spiro[2.5]oct-6-yl)-propyl]-piperazin-2-one], the IC50 is 53 nM. Next, `C[C@H]1C(=O)N(CCCN2CCC3(CC3)[C@H](O)C2)CCN1c1ccc(Cl)c(Cl)c1` [Example 74, (S)-4-(3,4-Dichloro-phenyl)-1-[3-((S)-4-hydroxy-6-aza-spiro[2.5]oct-6-yl)-propyl]-3-methyl-piperazin-2-one]: 5 nM.

Regarding `C[C@H]1C(=O)N(C[C@H](O)CN2CCC3(CC3)[C@H](O)C2)CCN1c1ccc(Cl)c(Cl)c1` [Example 101, (S)-4-(3,4-dichloro-phenyl)-1-[(R)-2-hydroxy-3-((S)-4-hydroxy-6-aza-spiro[2.5]oct-6-yl)-propyl]-3-methyl-piperazin-2-one], the IC50 turned out to be 73 nM. Next, `C[C@H]1C(=O)N(C[C@@H](O)CN2CCC3(CC3)[C@H](O)C2)CCN1c1ccc(Cl)c(Cl)c1` [Example 99, (S)-4-(3,4-dichloro-phenyl)-1-[(S)-2-hydroxy-3-((S)-4-hydroxy-6-aza-spiro[2.5]oct-6-yl)-propyl]-3-methyl-piperazin-2-one]: 8 nM; `COC(=O)[C@H](CCN1CCC2(CC2)[C@H](O)C1)N1CCN(c2cccc(OC(F)(F)F)c2)CCC1=O` [Example 13, (S)-4-((S)-4-Hydroxy-6-aza-spiro[2.5]oct-6-yl)-2-[7-oxo-4-(3-trifluoromethoxy-phenyl)-[1,4]diazepan-1-yl]-butyric acid methyl ester]: 30 nM; `O=C1CCN(c2cccc(OC(F)(F)F)c2)CCN1C(CO)CCCN1CCC2(CC2)[C@H](O)C1` (stereo partly drawn) [Example 32, 4-[(R,S)-4-((S)-4-Hydroxy-6-aza-spiro[2.5]oct-6-yl)-1-hydroxymethyl-butyl]-1-(3-trifluoromethoxy-phenyl)-[1,4]diazepan-5-one]: 140 nM. Next, `CC1C(=O)N(CCCN2CCCCC2)CCN1c1ccc(Cl)c(Cl)c1` (centres unmarked) [Example 71, 4-(3,4-Dichloro-phenyl)-3-methyl-1-(3-piperidin-1-yl-propyl)-piperazin-2-one]: 226 nM; `COC(=O)[C@H](CCN1CCC2(CC2)[C@H](O)C1)N1C[C@H](C)N(c2ccc(Cl)c(Cl)c2)CCC1=O` [Example 66, (S)-2-[(S)-4-(3,4-dichloro-phenyl)-3-methyl-7-oxo-[1,4]diazepan-1-yl]-4-((S)-4-hydroxy-6-aza-spiro[2.5]oct-6-yl)-butyric acid methyl ester]: 546 nM; `C[C@H]1C(=O)N(CCCN2CCC3(CC3)[C@H](O)C2)CCN1c1ccc(-c2ccccc2)cc1` [Example 80, (S)-4-Biphenyl-4-yl-1-[3-((S)-4-hydroxy-6-aza-spiro[2.5]oct-6-yl)-propyl]-3-methyl-piperazin-2-one]: 318 nM.

(Values after patent US8138175B2, “Heterocyclyl compounds” (Hoffmann-La Roche Inc., priority 2008, dated 2012).)
